Data on one compound can be found in patent US20220184172A1, “AMPK/CASPASE-6 AXIS CONTROLS LIVER DAMAGE IN NONALCOHOLIC STEATOHEPATITIS” (The Regents of the University of California, priority 2019, published 2022).

Assay [1] relates to procaspase-6 cleavage in primary hepatocytes. The assay can be described thus: Procaspase-6 cleavage induced by TNFα and CHX in primary hepatocytes (IB). In kind it is cell-based, mice. Particulars: 40 μM pretreatment 1 hr, then 30 μg/ml CHX and 50 ng/ml TNFα 2 hrs. The text has this:
FIGS. 5A-5K. AMPK phosphorylates caspase-6 to inhibit its cleavage and activation. FIG. 5A. […] IB analysis of cell lysates. n=3. Mean±SD. *, P<0.05, two-way ANOVA. FIG. 5B. […] Cell lysates were subject to caspase-6 activity assay. Mean±SD. *, P<0.05. FIG. 5C. Caspase-6 Ser^257 locates within AMPK substrate motif. FIG. 5C. discloses SEQ ID NOS 57-63, respectively, in order of appearance. FIG. 5D. In vitro kinase assay using recombinant caspase-6, and recombinant AMPKα1β1γ1 or AMPKα2β1γ1 active kinase. FIG. 5E. Alignment of caspase-6 sequence. FIG. 5E. discloses SEQ ID NOS 64-67, respectively, in order of appearance. FIG. 5F. HEK293T cells overexpressing caspase-6-myc WT, S^257A, S^257D or S^257E mutant were treated with 10 μg/ml CHX and 25 ng/ml TNFα for 2 hrs. IB analysis of cell lysates. FIGS. 5G-5J. C57BL/6J mice were fed CD-HFD for 6 weeks, followed by intraperitoneally injection of 25 mg/kg A-769662 or vehicle daily for 2 weeks while continuous CD-HI-D. Mice were sacrificed 6 hrs after last injection. FIG. 5G. IB analysis of liver lysates. n=5. FIG. 5H. Liver lysates were subject to caspase-6 activity assay. n=7. FIG. 5I. Liver sections stained as indicated therein (aCasp6 and DAPI); in the merged image sections, the different stains correspond to the grayscale shades as indicated in the single stained images to the left. Scale bar=50 μm. […] Quantification of aCasp6 staining per field in FIG. 5I. n=7. […]

Assay [2] has as its system caspase-6 activity in primary hepatocytes. The assay can be described thus: Caspase-6 activity induced by palmitic acid in primary hepatocytes. Format: cell-based, mice. Particulars: 40 μM pretreatment 1 hr, then 250 μM BSA-conjugated palmitic acid 2 hrs. The procedure: FIGS. 5A-5K. AMPK phosphorylates caspase-6 to inhibit its cleavage and activation. FIG. 5A. Primary hepatocytes were pretreated 40 μM A-769662 for 1 hr, then treated 30 μg/ml CHX and 50 ng/ml TNFα for 2 hrs. IB analysis of cell lysates. n=3. Mean±SD. *, P<0.05, two-way ANOVA. FIG. 5B. Primary hepatocytes were pretreated 40 μM A-769662 for 1 hr, then treated 250 μM BSA-conjugated palmitic acid (PA) for 2 hrs. Cell lysates were subject to caspase-6 activity assay. Mean±SD. *, P<0.05. FIG. 5C. Caspase-6 Ser^257 locates within AMPK substrate motif. FIG. 5C. discloses SEQ ID NOS 57-63, respectively, in order of appearance. FIG. 5D. In vitro kinase assay using recombinant caspase-6, and recombinant AMPKα1β1γ1 or AMPKα2β1γ1 active kinase. FIG. 5E. Alignment of caspase-6 sequence. FIG. 5E. discloses SEQ ID NOS 64-67, respectively, in order of appearance. FIG. 5F. HEK293T cells overexpressing caspase-6-myc WT, S^257A, S^257D or S^257E mutant were treated with 10 μg/ml CHX and 25 ng/ml TNFα for 2 hrs. IB analysis of cell lysates. FIGS. 5G-5J. […] Quantification of aCasp6 staining per field in FIG. 5I. n=7. […]
Cell/tissue was homogenized with lysis buffer. Caspase-6 activity was determined with Caspase-6 Colorimetric Assay Kit (Biovision, Cat. K115), according to manufacturer's instruction. […]

For assay [3], the system named is C57BL/6J mice fed 45% HFD. Particulars: 30 mg/kg twice per day for 7 days; cited from earlier work.

Take `N#Cc1c(O)c2c(-c3ccc(-c4ccccc4O)cc3)csc2[nH]c1=O` [A-769662]: the procaspase-6 cleavage entry in assay [1] is “significantly inhibited”. Besides, the “induction of caspase-6 activity by PA” value in assay [2] is on record as “inhibited”. In assay [3], the hepatic triglycerides entry is on record as “reduced”.
